According to article PMC10545747, “Development of cyclopeptide inhibitors of cGAS targeting protein-DNA interaction and phase separation” (Nature Communications, 2023):
“And” between values parts separate entries of the source, which are not always exact repeats. Equal entries are not always repeated. Square brackets hold non-standard residues; d marks the D form. Peptide text beside a SMILES is read from it.

Tests used:
L929 cells = test: HSV-1 cytopathogenic effect, crystal violet staining; assay type: cell-based, mouse; settings: 10 μM
Procedure: L929 cells were seeded into 12-well plates at a density of 5 × 10^5 cells per well, and living cells were stained with crystal violet staining solution (Beyotime Biotechnology) according to the manufacturer’s instructions.

[1] = biological target: T1, full-length human cGAS (hcGAS-FL) (Homo sapiens, UniProt Q8N884); test: Surface plasmon resonance (SPR); assay type: binding
T1 construct: The gene encoding full-length human cGAS (hcGAS-FL); 6xHis-SUMO (N, cleaved yes); made in house; host or cells: Escherichia coli BL21 (DE3)
Procedure: (§1) All SPR binding studies were performed with a Biacore 8 K instrument (GE Healthcare Life Sciences). hcGAS-FL / hcGAS-ΔN (1 mg mL^−1) was immobilized in a CM5 chip by EDC/NHS method. The tested peptide was diluted with running buffer (20 mM HEPES, pH 7.5, 125 mM KCl,10 mM MgCl2). All the samples contained the same concentration of DMSO (0.5%). The tested peptide was injected at a flow rate of 30 μL min^−1 for 200 s of association, followed by 200 s of disassociation at 25 °C. The final graphs were obtained by subtracting blank sensorgrams. The data were analyzed with Biacore Insight Evaluation software.

[2] = biological target: T2, truncated cGAS (hcGAS-ΔN, residues 147–522) (Homo sapiens, UniProt Q8N884); test: Surface plasmon resonance (SPR); assay type: binding
T2 construct: N-terminally truncated human cGAS (hcGAS-ΔN, residues 147–522); 6xHis-SUMO (N, cleaved yes); made in house; host or cells: Escherichia coli BL21 (DE3)
Procedure: as §1

[3] = system: HSV-1-infected THP1 cells; test: HSV-1 cytopathogenic effect, CCK-8 viability; assay type: cell-based, human; settings: for cell viability, CCK-8, Fig. 5e: XQ2 10 μM
Procedure: Cell viability was measured by cell counting kit-8 (TargetMol) according to the manufacturer’s instructions.

[4] = biological target: T3, hcGAS-FL (D191R) mutant + FAM-ISD (Homo sapiens, UniProt Q8N884, D191R); test: Fluorescence polarization competition of FAM-ISD binding
T3 construct: The gene encoding full-length human cGAS (hcGAS-FL); 6xHis-SUMO (N, cleaved yes); made in house; host or cells: Escherichia coli BL21 (DE3)
Text: Samples were dispensed in 30 μ L final volumes per well into a 384-well flat-bottom black plate (Corning 3575). The polarization was detected by a microplate reader (BioTek Synergy H1) with a fluorescence polarization filter cube (excitation wavelength: 485 ± 10 nm; emission wavelength: 528 ± 10 nm) immediately.

[5] = system: THP1 cells stimulated with SATE-cddA, 2’3’-cGAMP or ADU-S100 (STING agonists); test: qPCR of IFNB1 mRNA in THP1 cells stimulated by STING agonists; assay type: cell-based, human; design: key to IFNB1 mRNA level (Fig. S7c): relative mRNA level, target CT normalized to GAPDH CT
Procedure: The indicated cells were stimulated with either ISD (Sangon Biotech), HSV-1 (Provided by Dr. Zhengfan Jiang), HSV60mer (Sangon Biotech), SATE-cddA[70], 2’3’-cGAMP (Invivogen, Cat# tlrl-nacga23-1), ADU-S100 (MedChemExpress, Cat# HY-12885A) or Poly(I:C) (Invivogen, Cat# tlrl-pic) after XQ2 or XQ2B treatment. Total RNA was isolated from indicated cells that incubated with the drugs for indicated time or mice tissues by using NucleoZOL reagent (MACHEREY-NAGEL) according to the manufacturer’s instructions. The quantifications of mRNA levels were carried out by real-time PCR using a PerfectStart® Uni RT&qPCR Kit (TransGen Biotech) on the QuantStudio 5 qPCR machine (Applied Biosystems). Samples were carried out in triplicate and the target CT values were normalized to GAPDH CT values. Primers of qPCR used in this study can be found in Supplementary Table S2.
IFNB1 mRNA relative level […]
Supplementary Fig. 7. XQ2B inhibits the activity of cGAS in vitro. […]
(e) THP1 cells were pretreated
Data are representative of
Source data are provided as a Source Data file.

T2 sequence (Q8N884 147-522, stated change not applied): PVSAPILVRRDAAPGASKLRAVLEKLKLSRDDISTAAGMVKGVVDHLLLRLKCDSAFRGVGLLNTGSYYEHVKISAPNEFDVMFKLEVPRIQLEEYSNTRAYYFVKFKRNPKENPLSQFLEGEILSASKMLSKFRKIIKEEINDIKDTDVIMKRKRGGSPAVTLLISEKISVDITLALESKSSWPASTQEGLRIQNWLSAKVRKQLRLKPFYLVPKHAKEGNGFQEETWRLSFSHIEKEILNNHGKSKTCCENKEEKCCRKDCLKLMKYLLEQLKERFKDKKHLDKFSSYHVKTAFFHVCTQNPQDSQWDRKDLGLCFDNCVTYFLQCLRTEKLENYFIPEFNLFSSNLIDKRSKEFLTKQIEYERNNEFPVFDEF
T1 sequence (Q8N884 whole entry): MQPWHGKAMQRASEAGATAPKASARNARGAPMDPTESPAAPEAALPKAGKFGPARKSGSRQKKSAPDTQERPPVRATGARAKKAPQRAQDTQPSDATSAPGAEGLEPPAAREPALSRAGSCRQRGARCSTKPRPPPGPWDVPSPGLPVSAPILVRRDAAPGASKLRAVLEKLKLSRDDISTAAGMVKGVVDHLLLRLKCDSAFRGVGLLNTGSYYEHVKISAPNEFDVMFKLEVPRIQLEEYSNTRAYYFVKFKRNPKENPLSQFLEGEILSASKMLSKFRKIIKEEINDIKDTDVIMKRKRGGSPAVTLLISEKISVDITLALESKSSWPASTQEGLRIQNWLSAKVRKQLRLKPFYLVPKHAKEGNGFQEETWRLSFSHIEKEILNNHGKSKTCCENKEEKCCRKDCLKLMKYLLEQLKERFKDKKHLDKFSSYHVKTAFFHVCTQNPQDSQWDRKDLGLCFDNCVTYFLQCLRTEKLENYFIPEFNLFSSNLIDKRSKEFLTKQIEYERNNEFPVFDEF
T3 sequence (Q8N884 whole entry D191R): as the sequence (Q8N884 whole entry) above, with D191R counted along it

Structure (SMILES)	HSV-1-induced cytopathogenic effect in L929 cells (L929 cells)	Response (RU), SPR, Fig. 3a ([1]; XQ2 2.5 μM)	Response (RU), SPR, Fig. 3a ([1]; XQ2 5 μM)	Response (RU), SPR, Fig. 3a ([1]; XQ2 10 μM)	Kd ([1]; hcGAS-FL, one-to-one binding model, ± 95% CI)	Response (RU), SPR, Fig. S4b ([2]; XQ2 2.5 μM)	Response (RU), SPR, Fig. S4b ([2]; XQ2 5 μM)	Response (RU), SPR, Fig. S4b ([2]; XQ2 10 μM)	Kd ([2]; hcGAS-ΔN, Fig. S4b)	HSV-1 cytopathogenic effect in THP1 cells ([3]; 10 μM)	cell viability, CCK-8, Fig. 5e ([3]; Ctl)	cell viability, CCK-8, Fig. 5e ([3]; HSV-1 1×10^4 pfu)	cell viability, CCK-8, Fig. 5e ([3]; HSV-1 1×10^5 pfu)	cell viability, CCK-8, Fig. 5e ([3]; HSV-1 2×10^4 pfu)	cell viability, CCK-8, Fig. 5e ([3]; HSV-1 5×10^4 pfu)	inhibition of dsDNA binding to hcGAS-FL (D191R), FP [4]	IFNB1 mRNA level (Fig. S7c) ([5]; 2'3'-cGAMP, XQ2B)	IFNB1 mRNA level (Fig. S7c) ([5]; SATE-cddA, XQ2B)	signaling induced by STING agonists ([5]; THP1, 10 μM)	IFNB1 mRNA level (Fig. S7c) ([5]; c-di-AM(PS)2, XQ2B)
CC(C)C[C@@H]1NC(=O)[C@H](CCCNC(=N)N)NC(=O)[C@H](C(C)C)NC(=O)[C@@H]2CCCN2C(=O)[C@@H](Cc2ccccc2)NC(=O)[C@H](CC(C)C)NC(=O)[C@H](CCCNC(=N)N)NC(=O)[C@H](C(C)C)NC(=O)[C@H](C)NC(=O)[C@@H](Cc2ccccc2)NC1=O [XQ2, Cyclo (LfAVRLfPVR)] (cyclo(L[dF]AVRL[dF]PVR))	promotion of XQ2 on HSV-1-induced cytopathogenic effect in mouse fibroblast L929 cells	57.4165 RU	140.669 RU	252.736 RU	35.9 µM and ~35 µM	32.0968 RU	115.953 RU	275.186 RU	86.5 ± 76.2 µM	HSV-1 produced marked cytopathogenic effect (CPE) in THP1 cells in the presence of XQ2	102.857 and 110.714 and 112.321	101.071 and 114.286 and 103.571	37.5 and 43.3929 and 38.0357	57.3214 and 52.5 and 50.7143	52.8571 and 47.6786 and 46.7857	markedly reduced	–	–	–	–
CC(C)C[C@@H]1NC(=O)[C@H](CCCNC(=N)N)NC(=O)[C@H](C(C)C)NC(=O)[C@@H]2CCCN2C(=O)[C@@H](Cc2ccccc2)NC(=O)[C@H](CC(C)C)NC(=O)[C@H](CCCNC(=N)N)NC(=O)[C@H]([C@@H](C)O)NC(=O)[C@H](C)NC(=O)[C@@H](Cc2ccccc2)NC1=O [XQ2B] (cyclo([dF]ATRL[dF]PVRL))	–	–	–	–	–	–	–	–	–	–	–	–	–	–	–	–	4003.21 and 3809.06 and 3708.08	747.639 and 650.174 and 712.905	no significant effect on signaling induced by STING agonists	9.033 and 9.206 and 10.1658
